Laboratory results: patent publication US11633414B2, “Nicotinoyl riboside compositions and methods of use” (Cornell University, priority 2005, dated 2023)
Entries after “also recorded” stand apart in the source; their conditions may differ. Where two headings read alike, the source gives them in different places.

Key:
Hela cells = assay: NAD+ content in cells after treatment with nicotinate riboside derivatives (HPLC, MALDI-MS with 18O-NAD+ standard); assay type: cell-based; conditions: for 16O-NAD+ / [NAD+]/10^6 cell: 24 hrs; for [NAD+]/10^6 cell: control 618
Description: Synthesized compounds (NAR: Nicotinic acid riboside, O-ethyl-NR: ethyl-nicotinate riboside, Intermediate: TAENR, triacetyl-ethyl-nicotinate riboside, See FIG. 10) were added to the cells separately after 24 hours (no compound added for control). The cells were then incubated for another 24 hrs before harvest. Cells were trypsinized and an aliquot removed for counting. […] After mixing thoroughly, samples were pelleted and then neutralized with NaOH to make pH=7˜8. Samples were then centrifuged for 3 minutes and the supernatant (100 uL) was injected onto a C-18 column (Hitachi HPLC L2130 pump L2450 diode array detector) and separated to isolate the peak containing NAD+. The elution was collected during the NAD+ peak and the solution frozen and lyophilized.

[1] = tested on: Mouse embryonic stem cells; assay: Effects of statins on cell viability and mitigation of toxicity by nicotinamide riboside (cell counting and MTT assay); conditions: for IC50: read-out: IC50 for statins in the absence of NR, apparently 7 days
[2] = tested on: Mouse embryonic stem cells; assay: Cell survival after mms treatment and passage with/without NAR (haemocytometry); assay type: cell-based; conditions: mms 1 mM 3 hrs, NAR 1 mM, counted after two days
Description: Mms (200 mM) was added to both flask #A and #B to make final concentration as 1 mM. After 3 hrs incubation, each cell culture (with/without NR treated) is passed to two new flasks with/without 1 mM of NAR. After two days incubation, count the culture survival in each of these 4 new flasks: mms/control media, mms/NAR media; mms+NAR/control media; mms+NAR/NAR media. It was found after mms treatment, the cultured cells are seriously damaged and only have a very low survival after passage. […] Cell counting by haemocytometry was used to determine survival versus cell number (see FIG. 4).

[3] = tested on: Mouse embryonic stem cells; assay: Increase of cellular NAD+ levels in cells grown on nicotinamide riboside (NAR) enriched medium; assay type: cell-based
Description: Mouse embryonic stem cells were plated onto cell culture flasks (250 mL, 75 cm^2) and grown to 50% confluence in 48 hours after passage. At 48 hours 2 flasks were set aside as controls and 2 flasks were used to determine effect of NAR on NAD+ biosynthesis. Cells were treated with 1M HClO4, and a specific amount of 180-NAM ([…]) and ^18O-NAD+. Samples were fractionated by HPLC and the fractions containing NAM and NAD+ were analyzed by ESI-MS and MALDI-MS respectively. Peak ratio (^16O/^18O) was used to quantitate NAM and NAD+ amounts in each sample. […] According to our measurement, the NAD+ level in NAR treated cells is 3886.6 pmoL/mg cell protein and nucleic acid content, and the NAD+ in control cells is only 1782.2 pmoL/mg cell protein and nucleic acid content. Cell protein and nucleic acid content were measured separately (see FIG. 3).

[4] = tested on: Mouse embryonic stem cells; assay: Effect of NAR on mms mediated cell death (trypan blue counting); assay type: cell-based; conditions: media supplemented with NAR 1 mM, mms 1 mM (FIG. 2)
Description: 1000 units/mL], named from #1 to #7. […] Mms (200 mM) was added to flask #2, 3, 4, 5, 6, 7 to make final concentration as 1 mM. Cell flask #1 is kept as a control, and used for passage. After 3 hrs incubation, fresh media was changed for flask #4, 5, 6, 7. And Cell #2, and 3 are harvested. After 6 hrs treatment of mms, Cell #4, 5 are harvested. And Cell #6, 7 are harvested at 9 hrs treatment of mms. The harvest cells (living ones) are counted for the percentage of death with trypan blue (see FIG. 2).

[5] = assay type: physicochemical
Description: The synthesis of nicotinoyl riboside compounds was initiated with the preparation of a preferred intermediate, ethyl 1-[3,4-diacetyloxy-5-(acetyloxymethyl)oxolan-2-yl]-pyridine-3-carboxylate. Nicotinic acid riboside O-alkyl derivatives were prepared from there. Refluxing of the protected sugar, 1,2,3,5-tetra-O-acetyl-β-D-ribofuranose with ethyl nicotinate (1.2 equiv.) in methylene chloride under the catalysis of TMSOTf (1 equiv.) stereoselectively formed β-isomer in good yield (>90%). One of the advantages for this method is that there is no need to go through the silylation of nicotinamide. After evaporation of the solvent, ethyl 1-[3,4-diacetyloxy-5-(acetyloxymethyl)oxolan-2-yl]-pyridine-3-carboxylate could be used directly for the next step. […] Extraction of ethyl acetate from water layer could get rid of most non-polar side products and give 95% of pure products according to TLC. Ethyl 1-[3,4-diacetyloxy-5-(acetyloxymethyl)oxolan-2-yl]-pyridine-3-carboxylate was also treated with NaOCH3/MeOH at −20° C. to form O-methyl nicotinate riboside. Other O-alkyl nicotinate ribosides were prepared similarly. O-Alkyl nicotinate ribosides can be hydrolyzed with esterase (from porcine liver, sigma) at pH=7.0 to afford clean nicotinic acid riboside. Reverse HPLC was used to detect and purify products.

Structure (SMILES): CCOC(=O)c1ccc[n+]([C@@H]2O[C@H](CO)[C@@H](O)[C@H]2O)c1 [O-ethyl NR, O-ethyl β-nicotinic riboside]
- 16O-NAD+ (Hela cells; 500 uM): 1084.1 pmol
- [NAD+]/10^6 cell (Hela cells; 500 uM): 1004 pmoL
- 16O-NAD+ (Hela cells; 803 uM): 2622.7 pmol
- [NAD+]/10^6 cell (Hela cells; 803 uM): 2242 pmoL
- increase over the control NAD+ content (Hela cells; 500 micromolar): 62%
- NAD+ concentration in cells (Hela cells; 500 micromolar, untreated cells 618): 1004 μmol per million cells
- increase in NAD+ concentration (Hela cells; 800 micromolar): approximately three

Structure (SMILES): NC(=O)c1ccc[n+]([C@@H]2O[C@H](CO)C(O)C2O)c1 (stereo partly drawn) [NAR, β-nicotinamide riboside]
- mitigation of statin toxicity ([1]; NR 500 μM in cell media, lovastatin, 2, 4 and 7 days, listed as NR): significantly reduces the toxicity of statin; also recorded: mitigates statin toxicity in a significant way
- increase of IC50 of the statin in the presence of NR ([1]; NR 500 μM, after 4 and 7 days treatment): two to three
- cell viability in the NR treated group versus no NR ([1]; cell counting and MTT assay, at virtually every statin concentration): significantly higher
- viable cells at the highest statin concentration ([1]; statin 10 μM, NR treated group, cell counting and MTT assay): significant percentages of viable cells remain
- culture survival after passage [2]: highest culture numbers
- NAD+ level ([3]; NAR treated cells, control cells 1782.2): 3886.6 pmoL/mg cell protein and nucleic acid content
- NAD+ concentration compared to the controls ([3]; NAR treated embryonic stem cells vs controls): higher concentration of NAD+; also recorded: increase of intracellular levels of nicotinamide adenine dinucleotide (NAD+)
- cell survival [4]: improvement of cell survival

Structure (SMILES): CCOC(=O)c1ccc[n+]([C@@H]2O[C@H](COC(C)=O)C(OC(C)=O)[C@@H]2OC(C)=O)c1 (stereo partly shown) [TAENR, ethyl 1-[3,4-diacetyloxy-5-(acetyloxymethyl)oxolan-2-yl]-pyridine-3-carboxylate]
- 16O-NAD+ (Hela cells; 750 uM): 4432.2 pmol
- [NAD+]/10^6 cell (Hela cells; 750 uM): 2052 pmoL
- increase of NAD+ concentrations in cells (Hela cells; concentration of Table 3 (750 uM)): three

Structure (SMILES): O=C(O)c1ccc[n+]([C@@H]2O[C@H](CO)C(O)C2O)c1 (stereo partly drawn) [nicotinic acid riboside, β-Nicotinic acid riboside]
- increase of NAD+ concentrations in cells (Hela cells; concentrations of Table 3): 60%

Structure (SMILES): NC(=O)c1ccc[n+]([C@@H]2O[C@H](CO)[C@@H](O)[C@H]2O)c1 [NAR, β-nicotinamide riboside]
- water solubility [5]: extremely water-soluble
- 16O-NAD+ (Hela cells; 669 uM): 2201.2 pmol
- [NAD+]/10^6 cell (Hela cells; 669 uM): 1079 pmoL

Structure (SMILES): CC[C@H](C)C(=O)O[C@H]1C[C@@H](C)C=C2C=C[C@H](C)[C@H](CC[C@@H]3C[C@@H](O)CC(=O)O3)[C@H]21 [statin, lovastatin, reference compound]
- IC50 ([1]; determined by MTT assay): 216 nM
- IC50 ([1]; determined by cell counting): 248 nM
- cell viability at the highest statin concentration ([1]; statin 10 μM, no NR group): almost completely non-viable
